Experimental data: patent US11345712B2, “Protein-targeting compounds and pharmaceutical compositions thereof, and their therapeutic applications” (BioTheryX, Inc., priority 2019, dated 2022)

System: MOLM-13 cells
Assay: MOLM-13 cell viability assay (CellTiter-Glo)
Type: cell-based
Conditions: Homo sapiens, MOLM-13, 72 h, 3 days, concentration of 1 μM, read-out: Antiproliferative Activity (inhibition, MOLM-13 cell viability)
Protocol: MOLM-13 cells were cultured in RPMI 1640 media supplemented with 10% fetal bovine serum, streptomycin, and penicillin. The cells were plated in white walled 96-well plates at 2,500 cells/well. The cells were incubated in DMSO (control) or an indicated compound for 3 days at 37° C. and 5% CO2. Following the incubation period, 100 μL of CELLTITER-GLO® (CTG) reagent was added to each well. Following a 10 minutes incubation with shaking, luminescence was measured using an ENVISION® Multimode plate reader.

Row | Structure (SMILES) | cytotoxicity at 1 µM
1 | Cc1ccc(C(=O)C(=O)NCc2scc3c2CN(C2CCC(=O)NC2=O)C3=O)cc1Cl (centres unmarked) [Compound I-6, 2-(3-chloro-4-methylphenyl)-N-((5-(2,6-dioxopiperidin-3-yl)-4-oxo-5,6-dihydro-4H-thieno[3,4-c]pyrrol-1-yl)methyl)-2-oxoacetamide] | 25 to 50%
2 | CN(C)c1ccc(C(=O)C(=O)NCc2scc3c2CN(C2CCC(=O)NC2=O)C3=O)cc1 (centres unmarked) [Compound I-7, 2-(4-dimethylaminophenyl)-N-((5-(2,6-dioxopiperidin-3-yl)-4-oxo-5,6-dihydro-4H-thieno[3,4-c]pyrrol-1-yl)methyl)-2-oxoacetamide] | < 25%
3 | O=C1CCC(N2Cc3c(csc3CNC(=O)C(=O)c3ccccc3)C2=O)C(=O)N1 (centres unmarked) [Compound I-8, 2-phenyl-N-((5-(2,6-dioxopiperidin-3-yl)-4-oxo-5,6-dihydro-4H-thieno[3,4-c]pyrrol-1-yl)methyl)-2-oxoacetamide] | < 25%
4 | O=C1CCC(N2Cc3c(csc3CNC(=O)C(=O)c3cccs3)C2=O)C(=O)N1 (centres unmarked) [Compound I-9, N-((5-(2,6-dioxopiperidin-3-yl)-4-oxo-5,6-dihydro-4H-thieno[3,4-c]pyrrol-1-yl)methyl)-2-(thiophen-2-yl)-2-oxoacetamide] | < 25%
5 | CC(C)(C)c1ccc(C(=O)C(=O)NCc2ccc3c(c2)CN([C@H]2CCCC(=O)NC2=O)C3=O)cc1 [Compound I-10, (S)-2-(4-(tert-butyl)phenyl)-N-((2-(2,7-dioxoazepan-3-yl)-1-oxoisoindolin-5-yl)methyl)-2-oxoacetamide] | > 80%
6 | COc1ccc(C(=O)C(=O)NCc2scc3c2CN(C2CCC(=O)NC2=O)C3=O)cc1 (centres unmarked) [Compound I-11, 2-(4-methoxyphenyl)-N-((5-(2,6-dioxopiperidin-3-yl)-4-oxo-5,6-dihydro-4H-thieno[3,4-c]pyrrol-1-yl)methyl)-2-oxoacetamide] | < 25%
7 | O=C1CCC(N2Cc3c(csc3CNC(=O)C(=O)c3ccc(C4CC4)cc3)C2=O)C(=O)N1 (centres unmarked) [Compound I-12, 2-(4-cyclopropylphenyl)-N-((5-(2,6-dioxopiperidin-3-yl)-4-oxo-5,6-dihydro-4H-thieno[3,4-c]pyrrol-1-yl)methyl)-2-oxoacetamide] | < 25%
8 | CC(C)(C)c1ccc(C(=O)C(=O)NCc2scc3c2C(=O)N(C2CCC(=O)NC2=O)C3=O)cc1 (centres unmarked) [Compound I-13, 2-(4-(tert-butyl)phenyl)-N-((5-(2,6-dioxopiperidin-3-yl)-4,6-dioxo-5,6-dihydro-4H-thieno[3,4-c]pyrrol-1-yl)methyl)-2-oxoacetamide] | < 25%
9 | CC(C)c1ccc(C(=O)C(=O)NCc2scc3c2CN(C2CCC(=O)NC2=O)C3=O)cc1 (centres unmarked) [Compound I-14, 2-(4-isopropylphenyl)-N-((5-(2,6-dioxopiperidin-3-yl)-4-oxo-5,6-dihydro-4H-thieno[3,4-c]pyrrol-1-yl)methyl)-2-oxoacetamide] | 25 to 50%
10 | CCC(C)c1ccc(C(=O)C(=O)NCc2scc3c2CN(C2CCC(=O)NC2=O)C3=O)cc1 (centres unmarked) [Compound I-15, 2-(4-(sec-butyl)phenyl)-N-((5-(2,6-dioxopiperidin-3-yl)-4-oxo-5,6-dihydro-4H-thieno[3,4-c]pyrrol-1-yl)methyl)-2-oxoacetamide] | 25 to 50%
11 | O=C1CCC(N2Cc3c(csc3CNC(=O)C(=O)c3ccc(O)cc3)C2=O)C(=O)N1 (centres unmarked) [Compound I-16, 2-(4-hydroxyphenyl)-N-((5-(2,6-dioxopiperidin-3-yl)-4-oxo-5,6-dihydro-4H-thieno[3,4-c]pyrrol-1-yl)methyl)-2-oxoacetamide] | < 25%
12 | Cc1ccc(C(=O)C(=O)NCc2scc3c2CN(C2CCC(=O)NC2=O)C3=O)cc1 (centres unmarked) [Compound I-17, 2-(4-methylphenyl)-N-((5-(2,6-dioxopiperidin-3-yl)-4-oxo-5,6-dihydro-4H-thieno[3,4-c]pyrrol-1-yl)methyl)-2-oxoacetamide] | < 25%
13 | O=C1CCC(N2Cc3c(csc3CNC(=O)C(=O)c3ccc(Cl)cc3)C2=O)C(=O)N1 (centres unmarked) [Compound I-18, 2-(4-chlorophenyl)-N-((5-(2,6-dioxopiperidin-3-yl)-4-oxo-5,6-dihydro-4H-thieno[3,4-c]pyrrol-1-yl)methyl)-2-oxoacetamide] | < 25%
14 | CC(C)(C)c1cccc(C(=O)C(=O)NCc2scc3c2CN(C2CCC(=O)NC2=O)C3=O)c1 (centres unmarked) [Compound I-19, 2-(3-tert-butylphenyl)-N-((5-(2,6-dioxopiperidin-3-yl)-4-oxo-5,6-dihydro-4H-thieno[3,4-c]pyrrol-1-yl)methyl)-2-oxoacetamide] | > 80%
15 | CC(=O)Nc1ccc(C(=O)C(=O)NCc2scc3c2CN(C2CCC(=O)NC2=O)C3=O)cc1 (centres unmarked) [Compound I-20, 2-(4-acetamidophenyl)-N-((5-(2,6-dioxopiperidin-3-yl)-4-oxo-5,6-dihydro-4H-thieno[3,4-c]pyrrol-1-yl)methyl)-2-oxoacetamide] | < 25%
16 | O=C1CCC(N2Cc3c(csc3CNC(=O)C(=O)c3ccc(-c4ccccc4)cc3)C2=O)C(=O)N1 (centres unmarked) [Compound I-21, 2-([1,1′-biphenyl]-4-yl)-N-((5-(2,6-dioxopiperidin-3-yl)-4-oxo-5,6-dihydro-4H-thieno[3,4-c]pyrrol-1-yl)methyl)-2-oxoacetamide] | 25 to 50%
17 | O=C1CCC(N2Cc3c(csc3CNC(=O)C(=O)c3ccc(F)cc3)C2=O)C(=O)N1 (centres unmarked) [Compound I-22, 2-(4-fluorophenyl)-N-((5-(2,6-dioxopiperidin-3-yl)-4-oxo-5,6-dihydro-4H-thieno[3,4-c]pyrrol-1-yl)methyl)-2-oxoacetamide] | < 25%
18 | O=C1CCC(N2Cc3c(csc3CNC(=O)C(=O)c3ccc(C(F)(F)F)cc3)C2=O)C(=O)N1 (centres unmarked) [Compound I-23, 2-(4-trifluoromethylphenyl)-N-((5-(2,6-dioxopiperidin-3-yl)-4-oxo-5,6-dihydro-4H-thieno[3,4-c]pyrrol-1-yl)methyl)-2-oxoacetamide] | < 25%
19 | O=C1CCC(N2Cc3c(csc3CNC(=O)C(=O)c3ccc(Cl)c(Cl)c3)C2=O)C(=O)N1 (centres unmarked) [Compound I-24, 2-(3,4-dichlorophenyl)-N-((5-(2,6-dioxopiperidin-3-yl)-4-oxo-5,6-dihydro-4H-thieno[3,4-c]pyrrol-1-yl)methyl)-2-oxoacetamide] | 25 to 50%
20 | CN(C)Cc1ccc(C(=O)C(=O)NCc2scc3c2CN(C2CCC(=O)NC2=O)C3=O)cc1 (centres unmarked) [Compound I-25, 2-(4-((dimethylamino)methyl)phenyl)-N-((5-(2,6-dioxopiperidin-3-yl)-4-oxo-5,6-dihydro-4H-thieno[3,4-c]pyrrol-1-yl)methyl)-2-oxoacetamide] | < 25%
21 | O=C1CCC(N2Cc3c(csc3CNC(=O)C(=O)c3ccc(CN4CCOCC4)cc3)C2=O)C(=O)N1 (centres unmarked) [Compound I-26, 2-(4-(morpholinomethyl)phenyl)-N-((5-(2,6-dioxopiperidin-3-yl)-4-oxo-5,6-dihydro-4H-thieno[3,4-c]pyrrol-1-yl)methyl)-2-oxoacetamide] | < 25%
22 | Cc1cc(C(=O)C(=O)NCc2scc3c2CN(C2CCC(=O)NC2=O)C3=O)ccc1C(C)(C)C (centres unmarked) [Compound I-27, 2-(3-methyl-4-(tert-butyl)phenyl)-N-((5-(2,6-dioxopiperidin-3-yl)-4-oxo-5,6-dihydro-4H-thieno[3,4-c]pyrrol-1-yl)methyl)-2-oxoacetamide] | > 80%
23 | CC(C)(C)c1ccc(C(=O)C(=O)NCc2cccc3c2CN(C2CCC(=O)NC2=O)C3=O)cc1 (centres unmarked) [Compound I-28, 2-(4-(tert-butyl)phenyl)-N-((2-(2,6-dioxopiperidin-3-yl)-1-oxoisoindolin-4-yl)methyl)-2-oxoacetamide] | > 80%
24 | CC(C)(C)c1ccc(C(=O)C(=O)NCc2cc(F)cc3c2CN(C2CCC(=O)NC2=O)C3=O)cc1 (centres unmarked) [Compound I-29, 2-(4-(tert-butyl)phenyl)-N-((2-(2,6-dioxopiperidin-3-yl)-6-fluoro-1-oxoisoindolin-4-yl)methyl)-2-oxoacetamide] | > 80%
25 | O=C1CCC(N2Cc3c(CNC(=O)C(=O)c4ccc(C5(C(F)(F)F)CC5)cc4)cccc3C2=O)C(=O)N1 (centres unmarked) [Compound I-30, N-((2-(2,6-dioxopiperidin-3-yl)-1-oxoisoindolin-4-yl)methyl)-2-oxo-2-(4-(1-(trifluoromethyl)cyclopropyl)phenyl)acetamide] | > 80%
26 | CN1CCC(c2ccc(C(=O)C(=O)NCc3scc4c3CN(C3CCC(=O)NC3=O)C4=O)cc2)CC1 (centres unmarked) [Compound I-31, N-((5-(2,6-dioxopiperidin-3-yl)-4-oxo-5,6-dihydro-4H-thieno[3,4-c]pyrrol-1-yl)methyl)-2-(4-(1-methylpiperidin-4-yl)phenyl)-2-oxoacetamide] | < 25%
27 | CC(C)(C)c1ccc(C(=O)C(=O)NCc2ccc3c(c2)C(=O)N(C2CCC(=O)NC2=O)C3=O)cc1 (centres unmarked) [Compound I-32, 2-(4-(tert-butyl)phenyl)-N-((2-(2,6-dioxopiperidin-3-yl)-1,3-dioxoisoindolin-5-yl)methyl)-2-oxoacetamide] | > 80%
28 | CC(C)(C)c1cccc(C(=O)C(=O)NCc2ccc3c(c2)CN(C2CCC(=O)NC2=O)C3=O)c1 (centres unmarked) [Compound I-33, 2-(3-(tert-butyl)phenyl)-N-((2-(2,6-dioxopiperidin-3-yl)-1-oxoisoindolin-5-yl)methyl)-2-oxoacetamide] | > 80%
29 | CN(Cc1ccc2c(c1)CN(C1CCC(=O)NC1=O)C2=O)C(=O)C(=O)c1ccc(C(C)(C)C)cc1 (centres unmarked) [Compound I-34, 2-(4-(tert-butyl)phenyl)-N-((2-(2,6-dioxopiperidin-3-yl)-1-oxoisoindolin-5-yl)methyl)-N-methyl-2-oxoacetamide] | < 25%
